In US7795458B2, “Salt of (2S, 3S)-3-[[(1S)-1-isobutoxymethyl-3-methylbutyl] carbamoyl] oxirane-2-carboxylic acid” (Nippon Chemiphar Co., Ltd, priority 2003, dated 2010):

How the values were obtained:
[1] = Comparative stability test (solid kept at 80° C. for three days, light-shaded and airtight; remaining substance by HPLC); format: physicochemical; settings: for Remaining ratio(%) after 3 days at 80° C.: 10 mg solid sample, thermostat at 80° C., three days, light-shaded and airtight, HPLC; for storage stability (result in words): left at 80° C. for three days
Method: The crystalline Na salt of the invention (described in Example 9) was subjected to a comparative stability test. In the test, the Na salt was left at 80° C. for three days together with both the substance obtained by condensing the solution to dryness and the product collected by filtration and left at room temperature after recrystallization.
The crystalline K salt of the invention (described in Example 11) was subjected to a stability test in which the K salt was left at 80° C. for three days.
mobile phase: a mixture of 0.1 mol/L sodium dihydrogen phosphate reagent (pH: 3.0)/acetonitrile (5:2),
flow rate; controlled so that the retention time of (2S,3S)-3-[[(1S)-1-isobutoxymethyl-3-methylbutyl]-carbamoyl]oxirane-2-carboxylic acid would be approx. 13 minutes, and
As a sample, 10 mg of sodium or potassium (2S,3S)-3-[[(1S)-1-isobutoxymethyl-3-methylbutyl]carbamoyl]oxirane-2-carboxylate was weighed and placed in a test tube. After the sample was kept in a thermostat at 80° C. for three days under a light-shaded and airtight condition, the amount of remaining substance was measured by HPLC.
The same as those in Example 14.

cathepsin = settings: background statement; cited from earlier work

CC(C)COC[C@H](CC(C)C)NC(=O)[C@H]1O[C@@H]1C(=O)[O-].[Na+] [Na salt (obtained in Example 9), sodium (2S,3S)-3-[[(1S)-1-isobutoxymethyl-3-methylbutyl]carbamoyl]oxirane-2-carboxylate]
Remaining ratio(%) after 3 days at 80° C. [1]: 95-98% | storage stability (result in words) [1]: superior to the substances for comparison in storage stability

CC(C)COC[C@H](CC(C)C)NC(=O)[C@H]1O[C@@H]1C(=O)[O-].[K+] [K salt (obtained in Example 11), potassium (2S,3S)-3-[[(1S)-1-isobutoxymethyl-3-methylbutyl]carbamoyl]oxirane-2-carboxylate]
Remaining ratio(%) after 3 days at 80° C. [1]: 99.9% | storage stability (result in words) [1]: excellent in storage stability

CC(C)COC[C@H](CC(C)C)NC(=O)[C@H]1O[C@@H]1C(=O)[O-].[Na+] [Na salt (obtained through recrystallization and drying in ai] [sodium (2S,3S)-3-[[(1S)-1-isobutoxymethyl-3-methylbutyl]carbamoyl]oxirane-2-carboxylate, reference compound]
Remaining ratio(%) after 3 days at 80° C. [1]: 38-77%

CC(C)COC[C@H](CC(C)C)NC(=O)[C@H]1O[C@@H]1C(=O)[O-].[Na+] [Na salt (obtained according to the conventional process)] [sodium (2S,3S)-3-[[(1S)-1-isobutoxymethyl-3-methylbutyl]carbamoyl]oxirane-2-carboxylate, reference compound]
Remaining ratio(%) after 3 days at 80° C. [1]: 13-77%

CC(C)COC[C@H](CC(C)C)NC(=O)[C@H]1O[C@@H]1C(=O)[O-].[Na+] [Compound A, sodium (2S,3S)-3-[[(1S)-1-isobutoxymethyl-3-methylbutyl]carbamoyl]-oxirane-2-carboxylate]
cathepsin-inhibitory action (cathepsin): shows a cathepsin-inhibitory action
